Literature values, collected in patent publication US20080044462A1 (Collegium Pharmaceutical, Inc. Delaware, priority 2006, published 2008).

Conditions: background statement, no test described

stability in the presence of oxygen: highly unstable
Structure (SMILES): CC(NC(C)(C)C)C(=O)c1cccc(Cl)c1 (stereo not shown) [free base form of bupropion, 1-(3-chlorophenyl)-2[(1,1,dimethylethyl)amino]-1-propanone]
